ChEMBL document CHEMBL5647694, “Novel orally bioavailable EZH1/2 dual inhibitors with greater antitumor efficacy than an EZH2 selective inhibitor” (Cancer Sci, 2017)

What was measured:
Caov-3 cell line = assay: Antitumor activity against human Caov-3 cell line assessed as cell growth inhibition treated for 10 to 15 days; assay type: functional; details: time 10-15 day
MDA-MB-175-VII = assay: Antitumor activity against human MDA-MB-175-VII cells assessed as cell growth inhibition treated for 10 to 15 days; assay type: functional; details: time 10-15 day
[1] = test system: KATO III stomach cancer cell line; assay: Antitumor activity against human KATO III stomach cancer cell line assessed as cell growth inhibition treated for 10 to 15 days; assay type: functional; details: time 10-15 day
DMS-114 = assay: Antitumor activity against human DMS-114 cells assessed as cell growth inhibition treated for 10 to 15 days; assay type: functional; details: time 10-15 day
A-427 = assay: Antitumor activity against human A-427 cells assessed as cell growth inhibition treated for 10 to 15 days; assay type: functional; details: time 10-15 day
DU-145 = assay: Antitumor activity against human DU-145 cells assessed as cell growth inhibition treated for 10 to 15 days; assay type: functional; details: time 10-15 day
Pfeiffer = assay: Antitumor activity against human Pfeiffer cells assessed as cell growth inhibition treated for 10 to 15 days; assay type: functional; details: time 10-15 day
MDA-MB-361 = assay: Antitumor activity against human MDA-MB-361 cells assessed as cell growth inhibition treated for 10 to 15 days; assay type: functional; details: time 10-15 day
[2] = molecular target: Serine/threonine-protein kinase Sgk2 (Homo sapiens) (UniProt Q9HBY8); assay: Inhibition of N-terminal GST-fused full length human SGK2 (1 to 367 residues) expressed in baculovirus expression system using SGKtide as substrate at 1 uM in presence of ATP by Mobility shift assay
[3] = molecular target: Ephrin type-B receptor 2 (Homo sapiens) (UniProt P29323); assay: Inhibition of N-terminal GST-fused human EPHB2 cytoplasmic domain (581 to 987 residues) expressed in baculovirus-infected Sf21 cells using Blk/Lyntide as substrate at 1 uM in presence of ATP by Mobility shift assay
[4] = Antitumor activity against human COV644 cells assessed as cell growth inhibition treated for 10 to 15 days; assay type: functional; details: time 10-15 day
DU-4475 = assay: Antitumor activity against human DU-4475 cells assessed as cell growth inhibition treated for 10 to 15 days; assay type: functional; details: time 10-15 day
CA46 = assay: Antitumor activity against human CA46 cells assessed as cell growth inhibition treated for 10 to 15 days; assay type: functional; details: time 10-15 day
CAMA-1 = assay: Antitumor activity against human CAMA-1 cells assessed as cell growth inhibition treated for 10 to 15 days; assay type: functional; details: time 10-15 day
[5] = Antitumor activity against human OVISE cells assessed as cell growth inhibition treated for 10 to 15 days; assay type: functional; details: time 10-15 day
SK-OV-3 = assay: Antitumor activity against human SK-OV-3 cells assessed as cell growth inhibition treated for 10 to 15 days; assay type: functional; details: time 10-15 day
ARH-77 = assay: Antitumor activity against human ARH-77 cells assessed as cell growth inhibition treated for 10 to 15 days; assay type: functional; details: time 10-15 day
SUD4 = assay: Antitumor activity against human SU-DHL-4 cells assessed as cell growth inhibition treated for 10 to 15 days; assay type: functional; details: time 10-15 day
Hs746T = assay: Antitumor activity against human Hs746T cells assessed as cell growth inhibition treated for 10 to 15 days; assay type: functional; details: time 10-15 day
SJRH30 = assay: Antitumor activity against human SJRH30 cells assessed as cell growth inhibition treated for 10 to 15 days; assay type: functional; details: time 10-15 day
KARPAS-422 = assay: Antitumor activity against human KARPAS-422 cells assessed as cell growth inhibition treated for 10 to 15 days; assay type: functional; details: time 10-15 day
RPMI-8226 = assay: Antitumor activity against human RPMI-8226 cells assessed as cell growth inhibition treated for 10 to 15 days; assay type: functional; details: time 10-15 day
CWR22R = assay: Antitumor activity against human 22Rv1 cells assessed as cell growth inhibition treated for 10 to 15 days; assay type: functional; details: time 10-15 day
[6] = Antitumor activity against human CADO-ES1 cells assessed as cell growth inhibition treated for 10 to 15 days; assay type: functional; details: time 10-15 day
[7] = molecular target: Serine/threonine-protein kinase WNK1 (Homo sapiens) (UniProt Q9H4A3); assay: Inhibition of N-terminal GST-fused human WNK1 catalytic domain (1 to 491 residues) expressed in baculovirus expression system using SPAKtide as substrate at 1 uM in presence of ATP by Mobility shift assay
[8] = molecular target: Histone-lysine N-methyltransferase EHMT1 (Homo sapiens, UniProt Q9H9B1); assay: Inhibition of human GLP using Histone H3 (1-21 residues) and [3H]SAM as substrate incubated for 30 mins to 1 hr by HotSpot kinase assay
NCI-N87 = assay: Antitumor activity against human NCI-N87 cells assessed as cell growth inhibition treated for 10 to 15 days; assay type: functional; details: time 10-15 day
HCT-15 = assay: Antitumor activity against human HCT-15 cells assessed as cell growth inhibition treated for 10 to 15 days; assay type: functional; details: time 10-15 day
KCL-22 = assay: Antitumor activity against human KCL-22 cells assessed as cell growth inhibition treated for 10 to 15 days; assay type: functional; details: time 10-15 day
[9] = Antitumor activity against human NCI-H841 cells assessed as cell growth inhibition treated for 10 to 15 days; assay type: functional; details: time 10-15 day
LOUCY = assay: Antitumor activity against human LOUCY cells assessed as cell growth inhibition treated for 10 to 15 days; assay type: functional; details: time 10-15 day
LS180 = assay: Antitumor activity against human LS180 cells assessed as cell growth inhibition treated for 10 to 15 days; assay type: functional; details: time 10-15 day
NCI-H929 = assay: Antitumor activity against human NCI-H929 cells assessed as cell growth inhibition treated for 10 to 15 days; assay type: functional; details: time 10-15 day
Ramos = assay: Antitumor activity against human Ramos cells assessed as cell growth inhibition treated for 10 to 15 days; assay type: functional; details: time 10-15 day
[10] = molecular target: DNA (cytosine-5)-methyltransferase 3B (Homo sapiens, UniProt Q9UBC3); assay: Inhibition of human DNMT3b using lambda DNA and [3H]SAM as substrate incubated for 30 mins to 1 hr by HotSpot kinase assay
TOV21G = assay: Antitumor activity against human TOV-21G cells assessed as cell growth inhibition treated for 10 to 15 days; assay type: functional; details: time 10-15 day
MKN-45 = assay: Antitumor activity against human MKN-45 cells assessed as cell growth inhibition treated for 10 to 15 days; assay type: functional; details: time 10-15 day
HCC1187 = assay: Antitumor activity against human HCC1187 cells assessed as cell growth inhibition treated for 10 to 15 days; assay type: functional; details: time 10-15 day
JeKo-1 = assay: Antitumor activity against human JeKo-1 cells assessed as cell growth inhibition treated for 10 to 15 days; assay type: functional; details: time 10-15 day
JM1 = assay: Antitumor activity against human JM1 cells assessed as cell growth inhibition treated for 10 to 15 days; assay type: functional; details: time 10-15 day
HCC1954 = assay: Antitumor activity against human HCC1954 cells assessed as cell growth inhibition treated for 10 to 15 days; assay type: functional; details: time 10-15 day
[11] = Toxicity in Crl:CD Sprague-Dawley rat assessed as creatine kinase level in blood at 100 mg/kg, po administered daily for 14 days (reference value: 164 +/-5U/L); assay type: organism-based; details: in vivo, 336 h, time 14 day
[12] = Toxicity in Crl:CD Sprague-Dawley rat assessed as glucose level in blood at 100 mg/kg, po administered daily for 14 days (reference value: 193 +/-[…]); assay type: organism-based; details: in vivo, 336 h, time 14 day
[13] = Toxicity in Crl:CD Sprague-Dawley rat assessed as basophil count in blood at 100 mg/kg, po administered daily for 14 days (reference value: 0.023+/-0.018 10^3/uL); assay type: organism-based; details: in vivo, 336 h, time 14 day

Sequence of Serine/threonine-protein kinase WNK1 (Homo sapiens) (Q9H4A3 whole entry, looked up, the tested form may be a part): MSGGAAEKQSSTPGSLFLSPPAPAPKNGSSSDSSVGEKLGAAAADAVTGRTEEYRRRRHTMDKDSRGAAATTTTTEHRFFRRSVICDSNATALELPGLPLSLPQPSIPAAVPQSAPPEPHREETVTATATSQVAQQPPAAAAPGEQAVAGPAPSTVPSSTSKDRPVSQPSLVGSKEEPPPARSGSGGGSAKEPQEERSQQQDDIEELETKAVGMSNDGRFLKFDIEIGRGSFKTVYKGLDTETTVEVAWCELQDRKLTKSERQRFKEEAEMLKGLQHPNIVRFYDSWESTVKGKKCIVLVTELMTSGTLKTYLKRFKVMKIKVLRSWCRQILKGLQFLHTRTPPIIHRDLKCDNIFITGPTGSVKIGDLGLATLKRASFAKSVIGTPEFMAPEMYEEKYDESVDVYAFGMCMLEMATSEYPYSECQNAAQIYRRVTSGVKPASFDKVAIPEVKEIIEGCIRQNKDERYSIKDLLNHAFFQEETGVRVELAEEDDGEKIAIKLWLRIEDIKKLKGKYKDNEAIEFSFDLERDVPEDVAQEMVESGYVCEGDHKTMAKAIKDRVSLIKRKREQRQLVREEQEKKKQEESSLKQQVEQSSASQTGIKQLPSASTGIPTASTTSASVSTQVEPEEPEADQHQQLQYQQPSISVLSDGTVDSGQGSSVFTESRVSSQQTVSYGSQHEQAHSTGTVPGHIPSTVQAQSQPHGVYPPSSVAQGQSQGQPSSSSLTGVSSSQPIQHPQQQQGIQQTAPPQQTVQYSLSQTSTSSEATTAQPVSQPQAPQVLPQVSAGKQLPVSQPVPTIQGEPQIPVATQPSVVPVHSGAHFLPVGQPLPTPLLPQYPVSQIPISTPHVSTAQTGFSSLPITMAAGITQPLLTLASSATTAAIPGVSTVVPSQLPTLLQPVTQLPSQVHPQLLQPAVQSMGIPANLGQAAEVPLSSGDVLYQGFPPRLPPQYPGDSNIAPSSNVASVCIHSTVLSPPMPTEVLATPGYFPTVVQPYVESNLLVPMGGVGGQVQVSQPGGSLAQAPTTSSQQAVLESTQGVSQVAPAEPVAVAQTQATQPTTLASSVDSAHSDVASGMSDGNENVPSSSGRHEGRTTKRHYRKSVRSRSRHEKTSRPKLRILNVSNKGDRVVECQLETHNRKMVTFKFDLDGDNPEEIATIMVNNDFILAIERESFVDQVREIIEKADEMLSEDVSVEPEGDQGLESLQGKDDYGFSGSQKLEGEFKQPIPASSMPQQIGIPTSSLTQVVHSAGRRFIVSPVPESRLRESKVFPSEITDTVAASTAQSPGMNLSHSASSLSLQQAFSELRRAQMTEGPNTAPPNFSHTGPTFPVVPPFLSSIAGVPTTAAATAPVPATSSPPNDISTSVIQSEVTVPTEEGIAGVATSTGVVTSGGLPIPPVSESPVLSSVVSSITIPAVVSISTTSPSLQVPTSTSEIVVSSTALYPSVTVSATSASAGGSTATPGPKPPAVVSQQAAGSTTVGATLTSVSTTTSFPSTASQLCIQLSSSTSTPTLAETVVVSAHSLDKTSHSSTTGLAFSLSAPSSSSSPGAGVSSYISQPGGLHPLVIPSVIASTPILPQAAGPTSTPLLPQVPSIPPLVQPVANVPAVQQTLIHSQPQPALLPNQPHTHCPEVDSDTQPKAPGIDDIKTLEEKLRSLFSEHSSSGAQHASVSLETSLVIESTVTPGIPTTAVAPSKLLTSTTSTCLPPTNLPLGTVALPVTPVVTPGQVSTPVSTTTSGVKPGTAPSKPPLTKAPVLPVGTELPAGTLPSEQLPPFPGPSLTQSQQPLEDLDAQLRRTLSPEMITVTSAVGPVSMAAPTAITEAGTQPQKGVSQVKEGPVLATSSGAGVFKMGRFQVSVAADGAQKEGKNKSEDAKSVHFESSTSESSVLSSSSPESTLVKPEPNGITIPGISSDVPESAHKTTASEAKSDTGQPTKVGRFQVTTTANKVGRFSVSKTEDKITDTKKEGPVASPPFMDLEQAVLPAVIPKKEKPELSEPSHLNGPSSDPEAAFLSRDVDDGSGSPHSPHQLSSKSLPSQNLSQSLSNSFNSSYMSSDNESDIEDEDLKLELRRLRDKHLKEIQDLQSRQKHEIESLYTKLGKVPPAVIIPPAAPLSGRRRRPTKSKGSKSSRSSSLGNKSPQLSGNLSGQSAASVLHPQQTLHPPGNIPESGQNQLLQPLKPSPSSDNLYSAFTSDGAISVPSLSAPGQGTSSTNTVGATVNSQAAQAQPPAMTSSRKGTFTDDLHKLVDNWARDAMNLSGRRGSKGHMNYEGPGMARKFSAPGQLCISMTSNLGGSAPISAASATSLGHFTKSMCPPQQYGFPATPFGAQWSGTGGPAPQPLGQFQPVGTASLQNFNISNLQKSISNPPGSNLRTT
Sequence of Histone-lysine N-methyltransferase EHMT1 (Q9H9B1 whole entry, the tested form may be a part): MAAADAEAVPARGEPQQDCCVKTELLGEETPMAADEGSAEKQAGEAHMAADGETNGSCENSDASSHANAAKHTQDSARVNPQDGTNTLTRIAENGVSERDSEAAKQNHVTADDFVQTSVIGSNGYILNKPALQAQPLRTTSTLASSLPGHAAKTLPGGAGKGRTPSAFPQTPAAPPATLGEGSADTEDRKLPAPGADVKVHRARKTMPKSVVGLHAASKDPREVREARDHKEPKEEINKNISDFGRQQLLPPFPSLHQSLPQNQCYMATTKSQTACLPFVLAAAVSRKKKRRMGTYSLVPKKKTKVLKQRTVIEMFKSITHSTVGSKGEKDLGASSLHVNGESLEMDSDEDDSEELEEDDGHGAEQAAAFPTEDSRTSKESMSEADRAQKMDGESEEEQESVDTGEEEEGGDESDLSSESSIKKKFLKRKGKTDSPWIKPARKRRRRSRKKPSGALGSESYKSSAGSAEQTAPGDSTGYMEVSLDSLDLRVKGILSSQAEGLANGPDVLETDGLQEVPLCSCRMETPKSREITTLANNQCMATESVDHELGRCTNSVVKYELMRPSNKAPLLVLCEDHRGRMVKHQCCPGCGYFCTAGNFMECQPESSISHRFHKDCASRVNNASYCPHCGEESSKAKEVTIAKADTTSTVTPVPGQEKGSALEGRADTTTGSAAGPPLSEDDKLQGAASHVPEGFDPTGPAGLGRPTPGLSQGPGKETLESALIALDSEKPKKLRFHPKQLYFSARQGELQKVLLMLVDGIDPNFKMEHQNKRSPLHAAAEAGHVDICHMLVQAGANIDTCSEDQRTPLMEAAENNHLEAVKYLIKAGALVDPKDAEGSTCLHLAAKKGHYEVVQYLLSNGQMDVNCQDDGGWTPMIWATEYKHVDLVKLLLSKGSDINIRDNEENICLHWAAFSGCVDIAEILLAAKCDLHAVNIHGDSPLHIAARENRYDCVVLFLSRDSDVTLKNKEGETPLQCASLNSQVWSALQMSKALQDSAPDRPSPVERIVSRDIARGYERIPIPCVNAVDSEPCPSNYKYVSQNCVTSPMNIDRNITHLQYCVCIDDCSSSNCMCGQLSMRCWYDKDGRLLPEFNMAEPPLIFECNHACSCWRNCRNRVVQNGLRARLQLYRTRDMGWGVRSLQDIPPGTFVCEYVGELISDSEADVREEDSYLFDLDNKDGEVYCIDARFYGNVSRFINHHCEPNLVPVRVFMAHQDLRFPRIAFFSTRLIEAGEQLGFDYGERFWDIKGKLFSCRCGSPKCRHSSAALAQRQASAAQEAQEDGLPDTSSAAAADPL
Sequence of Ephrin type-B receptor 2 (Homo sapiens) (P29323 whole entry, the tested form may be a part): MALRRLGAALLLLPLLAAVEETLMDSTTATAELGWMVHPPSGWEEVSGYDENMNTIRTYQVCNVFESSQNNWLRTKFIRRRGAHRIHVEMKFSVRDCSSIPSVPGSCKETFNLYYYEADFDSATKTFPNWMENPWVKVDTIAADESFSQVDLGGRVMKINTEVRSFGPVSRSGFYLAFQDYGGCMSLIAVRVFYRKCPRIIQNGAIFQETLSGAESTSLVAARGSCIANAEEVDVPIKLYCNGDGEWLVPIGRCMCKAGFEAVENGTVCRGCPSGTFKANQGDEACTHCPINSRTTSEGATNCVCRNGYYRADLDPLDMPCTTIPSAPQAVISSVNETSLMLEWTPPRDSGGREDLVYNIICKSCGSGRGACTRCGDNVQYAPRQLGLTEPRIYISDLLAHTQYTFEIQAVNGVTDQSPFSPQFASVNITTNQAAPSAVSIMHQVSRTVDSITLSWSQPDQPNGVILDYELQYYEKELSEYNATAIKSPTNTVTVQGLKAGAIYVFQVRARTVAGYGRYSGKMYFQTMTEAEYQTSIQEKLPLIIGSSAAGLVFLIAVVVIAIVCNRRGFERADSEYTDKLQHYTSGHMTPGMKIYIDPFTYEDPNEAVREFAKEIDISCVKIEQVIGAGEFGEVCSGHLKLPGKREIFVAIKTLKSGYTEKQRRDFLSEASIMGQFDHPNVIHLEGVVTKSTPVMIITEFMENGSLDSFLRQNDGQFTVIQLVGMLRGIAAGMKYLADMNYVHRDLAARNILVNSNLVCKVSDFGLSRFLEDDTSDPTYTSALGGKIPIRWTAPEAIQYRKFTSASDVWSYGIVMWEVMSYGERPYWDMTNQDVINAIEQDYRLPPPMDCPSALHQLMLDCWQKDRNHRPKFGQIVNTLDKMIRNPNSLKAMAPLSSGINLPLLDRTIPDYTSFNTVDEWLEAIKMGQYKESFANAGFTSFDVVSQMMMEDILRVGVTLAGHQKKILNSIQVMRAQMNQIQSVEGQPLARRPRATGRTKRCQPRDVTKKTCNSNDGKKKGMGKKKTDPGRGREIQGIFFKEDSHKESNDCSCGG
Sequence of Serine/threonine-protein kinase Sgk2 (Homo sapiens) (Q9HBY8 whole entry, the tested form may be a part): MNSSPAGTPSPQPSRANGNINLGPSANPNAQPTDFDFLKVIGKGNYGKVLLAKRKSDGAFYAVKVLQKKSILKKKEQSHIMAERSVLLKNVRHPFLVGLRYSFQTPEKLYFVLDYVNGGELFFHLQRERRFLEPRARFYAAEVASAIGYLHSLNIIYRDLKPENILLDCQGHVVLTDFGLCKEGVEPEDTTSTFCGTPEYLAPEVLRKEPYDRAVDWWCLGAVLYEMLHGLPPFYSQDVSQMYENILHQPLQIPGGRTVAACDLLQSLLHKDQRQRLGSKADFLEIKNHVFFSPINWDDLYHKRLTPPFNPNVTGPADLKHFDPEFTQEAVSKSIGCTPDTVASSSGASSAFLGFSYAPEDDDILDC

Cc1cc(C)c(CNC(=O)c2cc(Cl)c3c(c2C)O[C@@](C)([C@H]2CC[C@H](N(C)C)CC2)O3)c(=O)[nH]1 [VALEMETOSTAT]
GI50 (Caov-3 cell line): > 1000 nM | GI50 (MDA-MB-175-VII): 43.9 nM | GI50 [1]: 18.2 nM | GI50 (DMS-114): 5.5 nM | GI50 (A-427): > 1000 nM | GI50 (DU-145): > 1000 nM | GI50 (Pfeiffer): 0.107 nM | GI50 (MDA-MB-361): 109 nM | inhibition [2]: -9% | inhibition [3]: -6.2% | GI50 [4]: > 1000 nM | GI50 (DU-4475): > 1000 nM | GI50 (CA46): 296 nM | GI50 (CAMA-1): 6.56 nM | GI50 [5]: > 1000 nM | GI50 (SK-OV-3): > 1000 nM | GI50 (ARH-77): > 1000 nM | GI50 (SUD4): 55.5 nM | GI50 (Hs746T): > 1000 nM | GI50 (SJRH30): > 1000 nM | GI50 (KARPAS-422): 1.56 nM | GI50 (RPMI-8226): 1.91 nM | GI50 (CWR22R): 37.7 nM | GI50 [6]: 952 nM | inhibition [7]: 3.4% | IC50 [8]: 100000 nM | GI50 (NCI-N87): 536 nM | GI50 (HCT-15): > 1000 nM | GI50 (KCL-22): 138 nM | GI50 [9]: 134 nM | GI50 (LOUCY): > 1000 nM | GI50 (LS180): 95.5 nM | GI50 (NCI-H929): > 1000 nM | GI50 (Ramos): > 1000 nM | IC50 [10]: 100000 nM | GI50 (TOV21G): 55.5 nM | GI50 (MKN-45): > 1000 nM | GI50 (HCC1187): > 1000 nM | GI50 (JeKo-1): 92.2 nM | GI50 (JM1): > 1000 nM | GI50 (HCC1954): > 1000 nM

Cc1cc(C)c(CNC(=O)c2cc(Br)c3c(c2C)O[C@@](C)([C@H]2CC[C@H](N(C)C)CC2)O3)c(=O)[nH]1
Activity [11]: 186 U/L | Activity [12]: 216 mg/dL | Activity [13]: 0.01 10^3 /uL
